Results published in patent US10351553B2, “Potassium channel modulators” (Cadent Therapeutics, Inc., priority 2017, dated 2019).
Where two headings read alike, the source gives them in different places.

How the values were obtained:
[1] = biological target: T1, hERG (Homo sapiens, UniProt Q12809); assay: Cardiac potassium channel hERG assay, whole-cell patch clamp in HEK-293 cells; type: cell-based; conditions: HEK-293 cells stably transfected with hERG; read-out: hERG inhibition (IC50)
T1 construct: host or cells: HEK-293
Description: Compounds were tested in a cardiac potassium channel hERG assay. hERG is responsible for a rapid delayed rectifier current (IKr) in human ventricles. Inhibition of IKr is the most common cause of cardiac action potential prolongation by non-cardiac drugs. See e.g., Brown, A. M. and Rampe, D. (2000). Drug-induced long QT syndrome: is HERG the root of all evil? Pharmaceutical News 7, 15-20.
HEK-293 cells were stably transfected with hERG cDNA. Stable transfectants were selected by coexpression with the G418-resistance gene incorporated into the expression plasmid. Selection pressure was maintained by including G418 in the culture medium. Cells were cultured in Dulbecco's Modified Eagle Medium/Nutrient Mixture F-12 (D-MEM/F-12) supplemented with 10% fetal bovine serum, 100 U/mL penicillin G sodium, 100 μg/mL streptomycin sulfate and 500 μg/mL G418. Cell culture records are kept on file at Charles River Laboratories. […]
Onset and steady state inhibition of hERG current was measured using a pulse pattern with fixed amplitudes (conditioning prepulse: +20 mV for 2 s; test pulse: −50 mV for 2 s) repeated at 10 s intervals, from a holding potential of −80 mV. Peak tail current was measured during the 2 s step to −50 mV.
One test article concentration was applied to each cell (n=3). Peak current was measured during the test ramp. […] Peak current was measured until a new steady state was achieved.

[2] = system: harmaline induced tremor; assay: Harmaline induced tremor, tremor events by forepaw transmitter band; type: in vivo, rat
Description: Immediately following harmaline injection, animals were placed in the tremor quantification apparatus and tremor events were quantified for 60 minutes. A tremor event signal was generated when a small metal transmitter band fitted to the right forepaw of the animal moved within the electromagnetic field generated by a loop antenna within the testing apparatus. Outputs from the amplifier were digitized at a sampling rate of 1,000 Hz and the signal was processed and analyzed using LabView software (National Instruments). To minimize signal from ambulatory and grooming behavior, the signal was filtered with a 128-ms unweighted moving average filter, and events with amplitudes>0.5 V and lasting>300 ms in duration were counted as a tremor event. Data were analyzed in one-minute bins over the course of the test and presented as the sum of tremor events over the entire 60 minute test.

[3] = system: harmaline-induced tremor; assay: Harmaline-induced whole body tremor, force-plate accelerometer (Tremor Monitor); type: in vivo
Description: Whole body tremor was measured by a San Diego Instruments Tremor Monitor (San Diego, Calif., USA). […] Tremor was measured for 30 minutes following harmaline administration, and data were analyzed by fast Fourier transform and reported as a frequency power spectrum. Harmaline induced a significant increase in the power spectrum in a band of frequencies between 10 and 14 Hz. […] Data were further analyzed by calculating the percent Motion Power (% MP), defined as the power in the 9-13 Hz band divided by the total power across the spectrum (0-30 Hz) multiplied by 100.

[4] = Brain concentration by LC-MS from brains harvested after tremor recording; type: in vivo; conditions: Sprague Dawley, rat, oral, 30 mg/Kg
Description: The extent to which compounds modulate SK2 channels in vivo is expressed as % SK2 SC100, which is the ratio of the concentration of the drug free in the brain to the measured potency of the compound on the SK2 channel. It is calculated as follows: CFB=CMB×BFF, where CMB is the concentration of compound measured by liquid chromatography mass spectrometry from brains harvested immediately following tremor recording (Table 1, “Measured Brain Concentration”). CFB is the amount of free compound not complexed with protein and therefore free to interact with the SK2 channel (Table 1, “Calculated Free Brain Concentration”). BFF is average free fraction of compound as measured by equilibrium dialysis in separate experiments (1 uM test concentration incubated in 10% rat brain tissue homogenate for 5 hours at 37° C.) (Table 1, “Brain Free Fraction”). Free drug in brain available to interact with SK2 channels (CFB) is arrived at by multiplying the measured total brain level (CMB) by the average free fraction (BFF).
The amount of free compound is then expressed in terms of its potency against the SK2 channel as follows: % SK2 SC100=CFB/SK2 SC100×100, where SK2 SC100 (Table 1, “SK2 SC100”) is the measured value of potency of the compound on SK2 channels and % SK2 SC100 (Table 1, “% SK2 SC100”) is the free brain concentration (CFB) normalized to SK2 SC100.

[5] = system: Purkinje neurons; assay: Purkinje cell firing irregularity in ex vivo cerebellar slices from SCA2 58Q transgenic mice; type: cell-based, mouse; conditions: bath application of 1 or 3 μM; slices from eleven-month old SCA2 58Q mice; P<0.05; FIG. 3
From the text: The difference in ISI CV between wild-type (N=8) and SCA2 58Q (N=11) mice is illustrated in FIG. 3 (P<0.005).

T1 sequence (Q12809 whole entry): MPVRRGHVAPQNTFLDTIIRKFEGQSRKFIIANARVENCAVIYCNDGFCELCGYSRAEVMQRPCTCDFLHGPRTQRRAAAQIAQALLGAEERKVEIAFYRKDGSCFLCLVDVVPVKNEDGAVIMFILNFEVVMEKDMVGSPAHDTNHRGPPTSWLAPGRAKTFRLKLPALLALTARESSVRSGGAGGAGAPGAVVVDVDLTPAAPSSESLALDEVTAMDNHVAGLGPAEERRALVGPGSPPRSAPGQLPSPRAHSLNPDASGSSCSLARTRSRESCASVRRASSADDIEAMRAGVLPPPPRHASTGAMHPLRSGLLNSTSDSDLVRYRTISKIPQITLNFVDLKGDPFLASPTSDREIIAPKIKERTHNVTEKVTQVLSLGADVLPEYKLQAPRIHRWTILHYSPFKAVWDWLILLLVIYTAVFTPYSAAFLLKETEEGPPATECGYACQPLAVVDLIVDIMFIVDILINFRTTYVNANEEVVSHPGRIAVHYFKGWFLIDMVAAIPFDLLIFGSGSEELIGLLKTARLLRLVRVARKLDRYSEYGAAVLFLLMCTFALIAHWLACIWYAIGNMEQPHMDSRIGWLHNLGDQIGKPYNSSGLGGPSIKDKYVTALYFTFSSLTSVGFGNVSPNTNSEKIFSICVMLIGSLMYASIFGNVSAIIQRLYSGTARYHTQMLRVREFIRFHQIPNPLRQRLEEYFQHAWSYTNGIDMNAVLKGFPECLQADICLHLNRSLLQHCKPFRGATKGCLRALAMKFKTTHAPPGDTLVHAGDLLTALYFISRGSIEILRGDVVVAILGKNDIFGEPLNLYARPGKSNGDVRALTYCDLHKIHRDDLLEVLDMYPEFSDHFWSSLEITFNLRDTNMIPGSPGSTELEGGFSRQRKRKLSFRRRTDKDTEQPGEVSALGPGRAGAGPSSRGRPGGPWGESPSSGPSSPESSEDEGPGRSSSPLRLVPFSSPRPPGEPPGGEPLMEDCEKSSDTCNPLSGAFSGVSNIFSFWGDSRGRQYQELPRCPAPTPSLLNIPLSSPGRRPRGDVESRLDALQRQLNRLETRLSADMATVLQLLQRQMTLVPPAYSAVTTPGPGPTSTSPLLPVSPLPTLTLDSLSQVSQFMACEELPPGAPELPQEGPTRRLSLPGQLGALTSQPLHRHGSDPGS

SMILES	IC50 [1] [µM]	Effect on harmaline induced tremor (sum of tremor events over 60 minutes) ([2]; 30 mg/Kg oral, 30 minutes prior to harmaline, male Sprague Dawley rats, FIG. 1)	Minimally Efficacious Dose ([2]; harmaline induced tremor, oral administration) [mg/kg]	Effect on percent Motion Power (% MP) ([3]; 3 mg/kg P<0.01, 10 and 30 mg/kg P<0.05, orally, FIG. 2)	Effect on harmaline-induced power spectrum, 10 to 14 Hz band ([3]; 3, 10, and 30 mg/kg orally 30 minutes prior to 5 mg/kg harmaline i.p.)	concentration at 90 min ([4]; CFB=CMB×BFF, read-out: Calculated Free Brain Concentration) [nM]	concentration at 90 min ([4]; brains harvested immediately following tremor recording, minimally efficacious dose, read-out: Measured Brain Concentration) [nM]	Effect on coefficient of variation of the interspike interval (ISI CV) [5]
Cc1cc(NC2CCCCC2)nc(-n2nc(C)cc2C)n1 [Comparator A, reference compound]	> 10							
Cc1ccn(-c2nc(NC3CCC(F)(F)CC3)cc(N3CCOCC3)n2)n1 [Compound 1, N-(4,4-difluorocyclohexyl)-2-(3-methyl-1H-pyrazol-1-yl)-6-morpholinopyrimidin-4-amine]	> 10	significant inhibition of tremors	30	significantly reduced harmaline-induced tremor	significantly reduced tremor	80	1300	partially reversed the increase in ISI CV
